Source: US20240101576A1, “HETEROCYCLIC INHIBITORS OF EGFR AND/OR HER2, FOR USE IN THE TREATMENT OF CANCER” (Scorpion Therapeutics, Inc., priority 2020, published 2024)

What was measured:
Assay type in all cases: cell-based
[1] = target: T1, EGFR exon 20 ASV Ins V769_D770 (Ba/F3 cells) (Homo sapiens, UniProt P00533, INS769ASV); assay: Inhibitor activity on EGFR-dependent cell growth (CellTiter-Glo, 72 h), Ba/F3 EGFR exon 20 ASV Ins; details: read-out: BaF3 ASV IC50
T1 construct: expressed in transfected cells; host or cells: Ba/F3 (murine pro-B cells), retroviral transduction, puromycin selection, IL3-independent pool
T1 sequence (P00533 with tags, fused parts or gaps INS769ASV): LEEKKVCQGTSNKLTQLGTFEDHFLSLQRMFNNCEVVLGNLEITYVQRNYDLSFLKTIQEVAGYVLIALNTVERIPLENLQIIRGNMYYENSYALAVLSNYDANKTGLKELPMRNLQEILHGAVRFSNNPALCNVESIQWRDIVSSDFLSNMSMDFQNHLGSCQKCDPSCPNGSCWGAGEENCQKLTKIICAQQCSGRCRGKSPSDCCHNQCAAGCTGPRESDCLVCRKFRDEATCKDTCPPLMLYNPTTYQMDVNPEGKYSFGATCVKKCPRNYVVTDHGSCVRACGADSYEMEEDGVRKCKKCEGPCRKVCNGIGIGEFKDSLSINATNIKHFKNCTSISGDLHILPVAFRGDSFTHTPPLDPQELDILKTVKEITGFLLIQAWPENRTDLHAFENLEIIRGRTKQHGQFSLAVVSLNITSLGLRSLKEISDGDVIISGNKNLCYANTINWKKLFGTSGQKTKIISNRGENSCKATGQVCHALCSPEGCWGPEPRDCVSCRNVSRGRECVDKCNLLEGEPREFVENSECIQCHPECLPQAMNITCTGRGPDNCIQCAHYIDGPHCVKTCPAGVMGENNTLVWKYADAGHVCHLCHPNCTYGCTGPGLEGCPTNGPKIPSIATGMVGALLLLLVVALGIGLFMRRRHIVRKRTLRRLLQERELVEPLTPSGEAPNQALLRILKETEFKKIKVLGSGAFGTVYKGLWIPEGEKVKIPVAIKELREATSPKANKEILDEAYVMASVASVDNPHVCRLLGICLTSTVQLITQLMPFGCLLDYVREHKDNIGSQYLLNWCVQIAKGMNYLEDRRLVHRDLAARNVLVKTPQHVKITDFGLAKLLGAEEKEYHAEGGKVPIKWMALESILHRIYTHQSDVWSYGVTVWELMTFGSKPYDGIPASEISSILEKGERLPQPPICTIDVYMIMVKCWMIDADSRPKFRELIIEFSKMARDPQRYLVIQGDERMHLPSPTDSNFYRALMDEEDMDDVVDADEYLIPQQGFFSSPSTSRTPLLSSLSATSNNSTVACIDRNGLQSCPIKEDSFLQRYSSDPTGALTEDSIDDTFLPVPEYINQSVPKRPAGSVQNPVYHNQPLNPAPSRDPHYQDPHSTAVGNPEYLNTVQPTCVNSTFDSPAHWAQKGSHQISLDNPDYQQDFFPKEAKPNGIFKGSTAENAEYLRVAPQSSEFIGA
Excerpt: (§1) Example A. Inhibitor Activity on EGFR-Dependent Cell Growth
(§2) Cell lines are generated by transducing Ba/F3 cells with retroviruses containing vectors with EGFR WT, EGFR L858R, EGFR exon 19del, EGFR L858R/C797S, EGFR exon 20 NPG Ins D770_N771, EGFR exon 20 ASV Ins V769_D770, EGFR exon 20 SVD Ins D770_N771, or EGFR exon 20 FQEA Ins A763_V764 genes and a puromycin selection marker. Transduced cells are selected with puromycin for 7 days and are then be transferred into culture media without Interleukin 3 (IL3). EGFR WT cells are maintained with supplemental EGF. Surviving cells are confirmed to express EGFR by Western blot and maintained as a pool. The IC50 date were included in Table 6 and Table 7.
(§3) 1.1 Cells are harvested from flask into cell culture medium and the cell number counted.
(§4) 1.2 Cells are diluted with culture medium to the desired density and 40 μL of cell suspension is added into each well of 384-well cell culture plate and the seeding density is 800 (FQEA, exon 19del), 600 (WT, NPG, L858R/C797S), or 400 (ASV, SVD, L858R) cells/well.
(§5) 2 Compound Preparation and Treatment
(§6) 2.1 Test compounds are dissolved to 10 mM in a DMSO stock solution. 45 μL of stock solution is transferred to a 384 polypropylene plate (pp-plate). Perform 3-fold, 10-point dilution via transferring 15 μL compound into 30 μL DMSO using a TECAN (EVO200) liquid handler.
(§7) 2.2 Spin plates at room temperature at 1,000 RPM for 1 minute.
(§8) 2.3 Transfer 120 nL of diluted compound from compound source plate into the cell plate.
(§9) 2.4 After compound treatment for 72 hours, perform CTG detection for compound treatment plates as described in “Detection” section.
(§10) 3.1 Plates are removed from incubators and equilibrated at room temperature for 15 minutes.
(§11) 3.2 Thaw the CellTiter Glo reagents and allow to equilibrate to room temperature before the experiment.
(§12) 3.3 Add 40 μL of CellTiter-Glo reagent into each well (at 1:1 to culture medium). Then place the plates at room temperature for 30 min followed by reading on EnVision.
(§13) 4.1 Inhibition activity is calculated following the formula below:
(§14) % Inhibition=100×(LumHC−LumSample)/(LumHC−LumLC) • where HC is obtained from cells treated with 0.1% DMSO only; and LC is obtained from culture medium only.
(§15) 4.2 2. Calculate the IC50 by fitting the Curve using Xlfit (v5.3.1.3), equation 201.
(§16) Y=Bottom+(Top−Bottom)/(1+10^((Log IC50−X)*HillSlope))

[2] = target: T2, EGFR exon 20 SVD Ins D770_N771 (Ba/F3 cells) (Homo sapiens, UniProt P00533, INS770SVD); assay: Inhibitor activity on EGFR-dependent cell growth (CellTiter-Glo, 72 h), Ba/F3 EGFR exon 20 SVD Ins; details: read-out: BaF3 SVD IC50
T2 construct: expressed in transfected cells; host or cells: Ba/F3 (murine pro-B cells), retroviral transduction, puromycin selection, IL3-independent pool
T2 sequence (P00533 with tags, fused parts or gaps INS770SVD): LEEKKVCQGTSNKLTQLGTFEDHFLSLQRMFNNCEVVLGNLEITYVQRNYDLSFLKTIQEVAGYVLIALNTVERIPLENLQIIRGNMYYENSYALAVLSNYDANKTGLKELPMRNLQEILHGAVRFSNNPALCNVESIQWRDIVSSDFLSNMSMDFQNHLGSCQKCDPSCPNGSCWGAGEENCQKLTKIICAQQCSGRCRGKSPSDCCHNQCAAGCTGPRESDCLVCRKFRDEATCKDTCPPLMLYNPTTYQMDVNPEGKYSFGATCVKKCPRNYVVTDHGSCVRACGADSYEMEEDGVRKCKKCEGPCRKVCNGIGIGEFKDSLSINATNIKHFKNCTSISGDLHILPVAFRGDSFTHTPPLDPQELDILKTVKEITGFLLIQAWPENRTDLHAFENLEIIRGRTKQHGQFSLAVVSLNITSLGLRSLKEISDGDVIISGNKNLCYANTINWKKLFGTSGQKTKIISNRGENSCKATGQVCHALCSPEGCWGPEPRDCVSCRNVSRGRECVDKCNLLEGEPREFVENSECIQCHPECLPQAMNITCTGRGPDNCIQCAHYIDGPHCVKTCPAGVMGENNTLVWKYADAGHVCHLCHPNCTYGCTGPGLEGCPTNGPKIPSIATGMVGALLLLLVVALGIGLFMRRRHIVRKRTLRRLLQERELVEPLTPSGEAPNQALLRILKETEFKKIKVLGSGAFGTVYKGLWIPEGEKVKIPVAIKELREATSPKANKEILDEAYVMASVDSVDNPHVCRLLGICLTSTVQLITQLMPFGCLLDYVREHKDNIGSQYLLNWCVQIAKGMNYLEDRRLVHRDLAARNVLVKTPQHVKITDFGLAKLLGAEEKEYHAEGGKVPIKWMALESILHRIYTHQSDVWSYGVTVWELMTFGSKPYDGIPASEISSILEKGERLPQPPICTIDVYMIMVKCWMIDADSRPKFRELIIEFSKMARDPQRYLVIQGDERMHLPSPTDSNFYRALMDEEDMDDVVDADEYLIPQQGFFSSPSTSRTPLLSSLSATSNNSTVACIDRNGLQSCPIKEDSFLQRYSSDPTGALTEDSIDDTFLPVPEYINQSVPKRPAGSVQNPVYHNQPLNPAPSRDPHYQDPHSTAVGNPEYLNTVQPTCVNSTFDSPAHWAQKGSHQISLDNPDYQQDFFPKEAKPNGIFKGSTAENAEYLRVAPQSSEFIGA
Excerpt: as §1, §2, §3, §4, §5, §6, §7, §8, §9, §10, §11, §12, §13, §14, §15, §16

[3] = target: T3, EGFR exon 20 FQEA Ins A763_V764 (Ba/F3 cells) (Homo sapiens, UniProt P00533, INS763FQEA); assay: Inhibitor activity on EGFR-dependent cell growth (CellTiter-Glo, 72 h), Ba/F3 EGFR exon 20 FQEA Ins; details: read-out: BaF3 FQEA IC50
T3 construct: expressed in transfected cells; host or cells: Ba/F3 (murine pro-B cells), retroviral transduction, puromycin selection, IL3-independent pool
T3 sequence (P00533 with tags, fused parts or gaps INS763FQEA): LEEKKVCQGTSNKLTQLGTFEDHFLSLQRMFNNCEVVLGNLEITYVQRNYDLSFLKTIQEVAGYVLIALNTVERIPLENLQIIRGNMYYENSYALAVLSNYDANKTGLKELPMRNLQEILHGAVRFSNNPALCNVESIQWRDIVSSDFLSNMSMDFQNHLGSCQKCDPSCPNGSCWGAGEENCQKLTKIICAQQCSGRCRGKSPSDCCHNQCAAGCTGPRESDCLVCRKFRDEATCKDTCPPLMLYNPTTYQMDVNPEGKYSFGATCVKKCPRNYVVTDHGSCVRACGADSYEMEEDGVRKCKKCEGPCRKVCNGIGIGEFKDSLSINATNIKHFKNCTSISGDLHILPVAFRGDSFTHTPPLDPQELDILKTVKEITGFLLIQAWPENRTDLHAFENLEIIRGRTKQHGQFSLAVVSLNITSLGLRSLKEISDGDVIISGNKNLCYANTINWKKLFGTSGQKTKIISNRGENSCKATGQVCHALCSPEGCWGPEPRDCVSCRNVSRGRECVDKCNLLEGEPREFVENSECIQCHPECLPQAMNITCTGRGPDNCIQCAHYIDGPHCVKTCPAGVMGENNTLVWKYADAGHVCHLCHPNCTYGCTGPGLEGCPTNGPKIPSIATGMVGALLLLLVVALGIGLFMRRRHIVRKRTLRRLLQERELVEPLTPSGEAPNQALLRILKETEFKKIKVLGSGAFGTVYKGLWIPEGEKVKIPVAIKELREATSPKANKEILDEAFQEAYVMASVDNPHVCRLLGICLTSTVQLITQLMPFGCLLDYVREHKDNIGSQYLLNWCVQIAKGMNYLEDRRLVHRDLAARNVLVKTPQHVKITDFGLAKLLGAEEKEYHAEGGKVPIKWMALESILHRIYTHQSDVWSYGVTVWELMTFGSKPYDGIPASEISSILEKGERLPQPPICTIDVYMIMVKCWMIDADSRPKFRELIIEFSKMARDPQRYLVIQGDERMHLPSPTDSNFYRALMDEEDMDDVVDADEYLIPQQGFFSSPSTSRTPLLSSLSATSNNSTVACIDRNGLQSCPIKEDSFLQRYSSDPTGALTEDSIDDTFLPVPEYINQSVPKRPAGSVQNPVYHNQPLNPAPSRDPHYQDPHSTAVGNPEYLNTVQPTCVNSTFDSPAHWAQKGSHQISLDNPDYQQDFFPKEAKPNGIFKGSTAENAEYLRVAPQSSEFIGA
Excerpt: as §1, §2, §3, §4, §5, §6, §7, §8, §9, §10, §11, §12, §13, §14, §15, §16

[4] = target: T4, EGFR WT (Ba/F3 cells) (Homo sapiens, UniProt P00533); assay: Inhibitor activity on EGFR-dependent cell growth (CellTiter-Glo, 72 h), Ba/F3 EGFR WT; details: read-out: BaF3 WT IC50
T4 construct: expressed in transfected cells; host or cells: Ba/F3 (murine pro-B cells), retroviral transduction, puromycin selection, maintained with EGF
T4 sequence (P00533 25-1210): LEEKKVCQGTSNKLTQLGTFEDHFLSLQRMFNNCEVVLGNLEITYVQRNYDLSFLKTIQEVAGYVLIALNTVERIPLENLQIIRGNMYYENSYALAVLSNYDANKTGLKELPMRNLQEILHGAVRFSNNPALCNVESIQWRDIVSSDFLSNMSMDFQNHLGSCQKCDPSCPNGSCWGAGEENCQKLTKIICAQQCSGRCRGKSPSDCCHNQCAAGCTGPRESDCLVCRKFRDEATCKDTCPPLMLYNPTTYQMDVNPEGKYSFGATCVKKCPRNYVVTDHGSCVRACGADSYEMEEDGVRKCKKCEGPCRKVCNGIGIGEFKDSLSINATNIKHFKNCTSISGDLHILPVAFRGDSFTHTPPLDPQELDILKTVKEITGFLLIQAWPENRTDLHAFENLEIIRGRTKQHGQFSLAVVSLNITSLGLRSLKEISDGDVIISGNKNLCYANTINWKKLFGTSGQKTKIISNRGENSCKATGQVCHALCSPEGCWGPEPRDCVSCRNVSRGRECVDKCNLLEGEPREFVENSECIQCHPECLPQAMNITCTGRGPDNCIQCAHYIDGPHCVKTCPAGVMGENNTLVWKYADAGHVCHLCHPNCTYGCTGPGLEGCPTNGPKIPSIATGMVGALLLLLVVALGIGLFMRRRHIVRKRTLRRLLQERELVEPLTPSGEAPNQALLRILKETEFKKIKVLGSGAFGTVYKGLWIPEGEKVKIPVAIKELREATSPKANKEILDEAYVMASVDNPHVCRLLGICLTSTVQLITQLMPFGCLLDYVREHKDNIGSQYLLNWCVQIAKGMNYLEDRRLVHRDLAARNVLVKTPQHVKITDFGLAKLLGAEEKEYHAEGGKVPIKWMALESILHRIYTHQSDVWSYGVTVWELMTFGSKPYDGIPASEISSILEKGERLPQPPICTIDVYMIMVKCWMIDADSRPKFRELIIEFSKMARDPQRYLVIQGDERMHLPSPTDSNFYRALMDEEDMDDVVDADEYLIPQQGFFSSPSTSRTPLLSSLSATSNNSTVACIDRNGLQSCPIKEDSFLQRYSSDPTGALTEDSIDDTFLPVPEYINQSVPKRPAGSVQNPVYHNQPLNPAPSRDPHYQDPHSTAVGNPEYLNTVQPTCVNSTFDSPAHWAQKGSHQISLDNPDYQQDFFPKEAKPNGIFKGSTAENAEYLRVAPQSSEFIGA
Excerpt: as §1, §2, §3, §4, §5, §6, §7, §8, §9, §10, §11, §12, §13, §14, §15, §16

IC50 [1] [µM]	IC50 [2] [µM]	IC50 [3] [µM]	IC50 [4] [µM]	Structure (SMILES)
0.1 to 1	0.1 to 1	0.1 to 1	> 1	COc1c(Cl)cccc1Nc1c(-c2ccncc2F)[nH]c2c1C(=O)NC[C@@H]2CC(C)(C)O [Compound 496, (7S)-3-[(3-chloro-2-methoxyphenyl)amino]-2-(3-fluoropyridin-4-yl)-7-(2-hydroxy-2-methylpropyl)-1H,5H,6H,7H-pyrrolo[3,2-c]pyridin-4-one]
> 1	0.1 to 1	0.1 to 1	> 1	COc1ncc2nccc(-c3[nH]c4c(c3Nc3cccc(Cl)c3OC)C(=O)N[C@H](C(F)(F)F)C4)c2n1 [Compound 508, (6S)-3-[(3-chloro-2-methoxyphenyl)amino]-2-{2-methoxypyrido[3,2-d]pyrimidin-8-yl}-6-(trifluoromethyl)-1H,5H,6H,7H-pyrrolo[3,2-c]pyridin-4-one]
0.1 to 1	0.1 to 1	0.1 to 1	> 1	COc1c(Cl)cccc1Nc1c(-c2ccncc2F)[nH]c2c1C(=O)NCC21COC1 [Compound 748, 3′-[(3-chloro-2-methoxyphenyl)amino]-2′-(3-fluoropyridin-4-yl)-5′,6′-dihydro-1′H-spiro[oxetane-3,7′-pyrrolo[3,2-c]pyridin]-4′-one]
0.1 to 1	0.1 to 1	0.1 to 1	> 1	COc1c(Cl)cccc1Nc1c(-c2ccnc(N)n2)[nH]c2c1C(=O)NC(CO)C2 (stereo not drawn) [Compound 751, 2-(2-aminopyrimidin-4-yl)-3-[(3-chloro-2-methoxyphenyl)amino]-6-(hydroxymethyl)-1H,5H,6H,7H-pyrrolo[3,2-c]pyridin-4-one]
< 0.1	< 0.1	< 0.1	< 0.1	COc1ccc2nccc(-c3[nH]c4c(c3Nc3cccc(Cl)c3OC)C(=O)NCC43CCC3)c2n1 [Compound 760, 3′-((3-chloro-2-methoxyphenyl)amino)-2′-(6-methoxy-1,5-naphthyridin-4-yl)-5′,6′-dihydrospiro[cyclobutane-1,7′-pyrrolo[3,2-c]pyridin]-4′(1′H)-one]
> 1	> 1	> 1	> 1	COc1cc2c(-c3[nH]c4c(c3Nc3cccc(Cl)c3OC)C(=O)NCC4)ccnc2cn1 [Compound 772, 3-[(3-chloro-2-methoxyphenyl)amino]-2-(6-methoxy-1,7-naphthyridin-4-yl)-1H,5H,6H,7H-pyrrolo[3,2-c]pyridin-4-one]
< 0.1	< 0.1	< 0.1	0.1 to 1	COc1c(Cl)cccc1Nc1c(-c2ccnc3ccc(OC4COC4)nc23)[nH]c2c1C(=O)NCC21CC1 [Compound 777, 3′-[(3-chloro-2-methoxyphenyl)amino]-2′-[6-(oxetan-3-yloxy)-1,5-naphthyridin-4-yl]-5′,6′-dihydro-1′H-spiro[cyclopropane-1,7′-pyrrolo[3,2-c]pyridin]-4′-one]

Second part, the compound before the results:

Structure (SMILES)	IC50 [1] [µM]	IC50 [2] [µM]	IC50 [3] [µM]	IC50 [4] [µM]
COc1ncc2nccc(-c3[nH]c4c(c3Nc3cccc(Cl)c3OC)C(=O)N[C@@H](C(F)(F)F)C4)c2n1 [Compound 507, (6R)-3-[(3-chloro-2-methoxyphenyl)amino]-2-{2-methoxypyrido[3,2-d]pyrimidin-8-yl}-6-(trifluoromethyl)-1H,5H,6H,7H-pyrrolo[3,2-c]pyridin-4-one]	< 0.1	< 0.1	< 0.1	0.1 to 1
COc1c(Cl)cccc1Nc1c(-c2ccnc(NCc3ccn(C)n3)n2)[nH]c2c1C(=O)NCC2 [Compound 709, 3-[(3-chloro-2-methoxyphenyl)amino]-2-(2-[[(1-methylpyrazol-3-yl)methyl]amino]pyrimidin-4-yl)-1H,5H,6H,7H-pyrrolo[3,2-c]pyridin-4-one]	< 0.1	< 0.1	0.1 to 1	0.1 to 1
COc1ccc2nccc(-c3[nH]c4c(c3Nc3cccc(Cl)c3OC)C(=O)NC[C@@H]4CCF)c2n1 [Compound 744, (S)-3-((3-chloro-2-methoxyphenyl)amino)-7-(2-fluoroethyl)-2-(6-methoxy-1,5-naphthyridin-4-yl)-1,5,6,7-tetrahydro-4H-pyrrolo[3,2-c]pyridin-4-one]	< 0.1	< 0.1	< 0.1	< 0.1
COc1ccc2nccc(-c3[nH]c4c(c3Nc3cccc(Cl)c3OC)C(=O)NC[C@H]4CCF)c2n1 [Compound 745, (R)-3-((3-chloro-2-methoxyphenyl)amino)-7-(2-fluoroethyl)-2-(6-methoxy-1,5-naphthyridin-4-yl)-1,5,6,7-tetrahydro-4H-pyrrolo[3,2-c]pyridin-4-one]	< 0.1	< 0.1	< 0.1	< 0.1
COC[C@H]1CNC(=O)c2c1[nH]c(-c1ccnc3ccc(OC)nc13)c2Nc1cccc(Cl)c1OC [Compound 764, (7S)-3-[(3-chloro-2-methoxyphenyl)amino]-2-(6-methoxy-1,5-naphthyridin-4-yl)-7-(methoxymethyl)-1H,5H,6H,7H-pyrrolo[3,2-c]pyridin-4-one]	< 0.1	< 0.1	< 0.1	< 0.1
COc1c(Cl)cccc1Nc1c(-c2ccnc3ccc(OC4CC4)nc23)[nH]c2c1C(=O)NC[C@H]2C [Compound 769, (R)-3-((3-chloro-2-methoxyphenyl)amino)-2-(6-cyclopropoxy-1,5-naphthyridin-4-yl)-7-methyl-1,5,6,7-tetrahydro-4H-pyrrolo[3,2-c]pyridin-4-one]	< 0.1	< 0.1	< 0.1	< 0.1
COc1c(Cl)cccc1Nc1c(-c2ccnc3ccc(OC4CC4)nc23)[nH]c2c1C(=O)NC[C@@H]2C [Compound 770, (S)-3-((3-chloro-2-methoxyphenyl)amino)-2-(6-cyclopropoxy-1,5-naphthyridin-4-yl)-7-methyl-1,5,6,7-tetrahydro-4H-pyrrolo[3,2-c]pyridin-4-one]	< 0.1	< 0.1	< 0.1	< 0.1
COc1c(Cl)cccc1Nc1c(-c2ccnc3cnc(OC4CC4)nc23)[nH]c2c1C(=O)NCC2 [Compound 771, 3-[(3-chloro-2-methoxyphenyl)amino]-2-{2-cyclopropoxypyrido[3,2-d]pyrimidin-8-yl}-1H,5H,6H,7H-pyrrolo[3,2-c]pyridin-4-one]	< 0.1	< 0.1	< 0.1	< 0.1
COc1ccc2nccc(-c3[nH]c4c(c3Nc3cccc(Cl)c3OC)C(=O)NCC4)c2c1 [Compound 773, 3-[(3-chloro-2-methoxyphenyl)amino]-2-(6-methoxyquinolin-4-yl)-1H,5H,6H,7H-pyrrolo[3,2-c]pyridin-4-one]	> 1	> 1	> 1	> 1
COc1c(Cl)cccc1Nc1c(-c2ccnc3cnc(C4CC4)nc23)[nH]c2c1C(=O)NCC2 [Compound 776, 3-[(3-chloro-2-methoxyphenyl)amino]-2-{2-cyclopropylpyrido[3,2-d]pyrimidin-8-yl}-1H,5H,6H,7H-pyrrolo[3,2-c]pyridin-4-one]	< 0.1	< 0.1	< 0.1	0.1 to 1
COc1c(F)cccc1Nc1c2c(n(C)c1-c1ccncc1F)CCNC2=O [Compound 789, 3-[(3-fluoro-2-methoxyphenyl)amino]-2-(3-fluoropyridin-4-yl)-1-methyl-5H,6H,7H-pyrrolo[3,2-c]pyridin-4-one]	> 1	> 1	> 1	> 1
